Four compounds from patent US20160212997A1, “AGRICULTURAL CHEMICALS” (REDAG CROP PROTECTION LTD, priority 2013, published 2016) can be followed below.

Structures are written as SMILES. Read-outs that look alike come from different tables or passages of the source.

In one assay the test system is aphids, Myzus persicae. Description: Potter tower spray on aphids, knockdown and mortality. It is filed as in vivo. To be noted: for Average of % corrected affected / pest or weed control at 0.00625 % strength / pest or weed control at 0.025 % strength / pest or weed control at 0.05 % strength / pest or weed control at 0.0125 % strength / pest or weed control at 0.1 % strength: Aphids; for pest or weed control at 0.00625 % strength / pest or weed control at 0.025 % strength / pest or weed control at 0.05 % strength / pest or weed control at 0.0125 % strength / pest or weed control at 0.000125 % strength / pest or weed control at 0.00025 % strength / pest or weed control at 0.0005 % strength / pest or weed control at 0.001 % strength / pest or weed control at 0.002 % strength / pest or weed control at 0.1 % strength: Myzus persicae, read-out: Average of % corrected affected; for pest or weed control at 0.1 % strength: 0.1 % w/v. From the text:
The compounds were screened for insecticidal efficacy against aphids, Myzus persicae, Cabbage moth, Mamestra brassicae, diamond black moths, Plutella xylostella, red spider mites, Tetranychus urticae, whitefly, Trialeurodes vaporariorum, in terms of knockdown and mortality.
(§1) Myzus persicae, Cabbage moth, Mamestra brassicae, diamond back moths, Plutella xylostella, red spider mites, Tetranychus urticae, whitefly, Trialeurodes vaporariorum, were obtained from specified laboratory cultures. Mixed sex and age aphids and mites, moth larvae and whitefly scale infested leaves were used in the experiments. Environmental conditions were closely monitored and recorded and were within the optimal range of the target species.
(§2) The compounds were screened at a range of five concentrations, diluted in DMSO. Some of the compounds were screened against aphids, whitefly and red spider mites and other compounds were screened against cabbage moth, and diamond black moths. A carrier only and an untreated control will also be conducted. Treatments were applied directly onto the insects within Petri dishes, using a potter tower.
(§3) Twenty mites and ten aphids, scales and moth larvae were placed within a Petri dish, lined with a suitable leaf disc on a damp cotton wool pad. Scales were already on leaves. The Petri dishes were then sprayed using a potter tower. The number of knocked down and anthropods were assessed at 24 and 48 hours post treatment. Five replicates were be performed for each treatment, for each species.
(§4) For Tables 2, 4, 5 and 6, the compounds were diluted in DMSO containing 1% v/v Tween 20™. For Tables 2, 4, 5 and 6, the caterpillars were a mixture of Mamestra brassicae and Lacanobia oleracea.

The subject of assay [1] is caterpillars, a mixture of Mamestra brassicae and Lacanobia oleracea. Description: Potter tower spray on caterpillars, knockdown and mortality. It is filed as in vivo. To be noted: for pest or weed control at 0.003125 % strength / pest or weed control at 0.0125 % strength / pest or weed control at 0.025 % strength / Average of % corrected affected / pest or weed control at 0.00625 % strength / pest or weed control at 0.05 % strength / pest or weed control at 0.1 % strength: Caterpillars; for pest or weed control at 0.003125 % strength / pest or weed control at 0.0125 % strength / pest or weed control at 0.025 % strength / pest or weed control at 0.000125 % strength / pest or weed control at 0.00025 % strength / pest or weed control at 0.0005 % strength / pest or weed control at 0.001 % strength / pest or weed control at 0.002 % strength / pest or weed control at 0.00625 % strength / pest or weed control at 0.05 % strength / pest or weed control at 0.1 % strength: read-out: Average of % corrected affected; for pest or weed control at 0.00625 % strength: 0.00625 % w/v; for pest or weed control at 0.05 % strength: 0.05 % w/v; for pest or weed control at 0.1 % strength: 0.1 % w/v.
From the text: as §1, §2, §3, §4

The mark [2] stands for this setting: 0.0125 % w/v, 48 hours post application.
Setting [3] is: 0.025 % w/v, 24 hours post application.
Setting [4] is: 0.025 % w/v, 48 hours post application.
[5] abbreviates: 24 h, 0.00625 % w/v, 24 hours post application.
[6] abbreviates: 24 h, 0.025 % w/v, 24 hours post application.
The mark [7] stands for this setting: 24 h, 0.05 % w/v, 24 hours post application.
[8] abbreviates: 48 h, 0.0125 % w/v, 48 hours post application.
[9] abbreviates: 48 h, 0.05 % w/v, 48 hours post application.
Where [10] appears, read: 24 h, 0.0125 % w/v, 24 hours post application.
Where [11] appears, read: 48 h, 0.025 % w/v, 48 hours post application.
Where [12] appears, read: 24 h, 24 hours post application.
Where [13] appears, read: 48 h, 48 hours post application.

Take `O=C(Nc1ccc(-c2cncnc2)oc1=O)C1CC1` [Compound 26, N-[2-Oxo-6-(5-pyrimidyl)pyran-3-yl]cyclopropanecarboxamide]: the “Average of % corrected affected” value is recorded as “E (A percentage control of from 1 to 19 is indicated by the letter E)” with aphids, Myzus persicae (0.00625 % w/v, 24 hours post application); “E (A percentage control of from 1 to 19 is indicated by the letter E)” with aphids, Myzus persicae (setting [2]); “E (A percentage control of from 1 to 19 is indicated by the letter E)” in the assay with aphids, Myzus persicae (setting [3]); “E (A percentage control of from 1 to 19 is indicated by the letter E)” with aphids, Myzus persicae (setting [4]); “E (A percentage control of from 1 to 19 is indicated by the letter E)” in the assay on aphids, Myzus persicae (0.05 % w/v, 24 hours post application); “E (A percentage control of from 1 to 19 is indicated by the letter E)” in the assay with aphids, Myzus persicae (0.05 % w/v, 48 hours post application). The “Average of % corrected affected” value is recorded as “E (A percentage control of from 1 to 19 is indicated by the letter E)” in assay [1] (0.003125 % w/v, 24 hours post application); “E (A percentage control of from 1 to 19 is indicated by the letter E)” in assay [1] (0.003125 % w/v, 48 hours post application); “E (A percentage control of from 1 to 19 is indicated by the letter E)” in assay [1] (0.0125 % w/v, 24 hours post application); “E (A percentage control of from 1 to 19 is indicated by the letter E)” in assay [1] (setting [2]); “E (A percentage control of from 1 to 19 is indicated by the letter E)” in assay [1] (setting [3]); “E (A percentage control of from 1 to 19 is indicated by the letter E)” in assay [1] (setting [4]). The pest or weed control at 0.00625 % strength in the assay on aphids, Myzus persicae (setting [5]) lay within 1 to 19%. For the same compound, the pest or weed control at 0.025 % strength with aphids, Myzus persicae (setting [6]) is 1 to 19%; in assay [1] (setting [6]), 1 to 19%; in assay [1] (setting [11]) it was 1 to 19%. The pest or weed control at 0.05 % strength in the assay on aphids, Myzus persicae (setting [7]) lay in the range of 1 to 19%; in the assay on aphids, Myzus persicae (setting [9]) it was 1 to 19%. Besides, the pest or weed control at 0.0125 % strength with aphids, Myzus persicae (setting [8]) lay within 1 to 19%; in assay [1] (setting [10]) it was 1 to 19%; in assay [1] (setting [8]) it was 1 to 19%. Also, the “control against caterpillars compared with reference compound 25” value in assay [1] (0.05%) is “greater control”. Besides, the pest or weed control at 0.003125 % strength in assay [1] (24 h, 0.003125 % w/v, 24 hours post application) lay in the range of 1 to 19%; in assay [1] (48 h, 0.003125 % w/v, 48 hours post application), 1 to 19%.

Take `Cc1cc(C2=NOC(c3cc(Cl)cc(Cl)c3)(C(F)(F)F)C2)ccc1SC1CCNC1=O` (centres unmarked) [Compound 21, 3-[4-[5-(3,5-dichlorophenyl)-5-(trifluoromethyl)-4H-isoxazol-3-yl]-2-methyl-phenyl]sulfanylpyrrolidin-2-one]: in the assay with aphids, Myzus persicae (24 h), the pest or weed control at 0.000125 % strength lay in the range of 20 to 39%, the pest or weed control at 0.00025 % strength lay within 1 to 19%, the pest or weed control at 0.0005 % strength is 1 to 19% and the pest or weed control at 0.001 % strength lay within 1 to 19%. The pest or weed control at 0.002 % strength with aphids, Myzus persicae (24 h) was 1 to 19%. In addition, in the assay with aphids, Myzus persicae (48 h), the pest or weed control at 0.000125 % strength fell in the range of 20 to 39%, the pest or weed control at 0.00025 % strength was in the range of 1 to 19%, the pest or weed control at 0.0005 % strength lay within 1 to 19% and the pest or weed control at 0.001 % strength was 1 to 19%. Further, the pest or weed control at 0.002 % strength in the assay on aphids, Myzus persicae (48 h) fell in the range of 20 to 39%. Besides, in assay [1] (24 h), the pest or weed control at 0.000125 % strength was in the range of 1 to 19%, the pest or weed control at 0.00025 % strength lay in the range of 1 to 19%, the pest or weed control at 0.0005 % strength came to 0% and the pest or weed control at 0.001 % strength was 1 to 19%. In addition, in assay [1] (24 h), the pest or weed control at 0.002 % strength was in the range of 1 to 19%. Moreover, in assay [1] (48 h), the pest or weed control at 0.000125 % strength was in the range of 1 to 19%, the pest or weed control at 0.00025 % strength was in the range of 1 to 19%, the pest or weed control at 0.0005 % strength is 1 to 19% and the pest or weed control at 0.001 % strength is 1 to 19%. Also, in assay [1] (48 h), the pest or weed control at 0.002 % strength lay in the range of 1 to 19%.

On to `COC(CN(Cc1ccc(Cl)nc1)C1=CC(=O)OC1)OC` [Compound 5, 3-[(6-Chloro-3-pyridyl)methyl-(2,2-dimethoxyethyl)amino]-2H-furan-5-one], for which the pest or weed control at 0.00625 % strength in the assay on aphids, Myzus persicae (setting [5]) was in the range of 1 to 19%; with aphids, Myzus persicae (48 h, 0.00625 % w/v, 48 hours post application), 1 to 19%; in assay [1] (setting [12]), 1 to 19%; in assay [1] (setting [13]) it was 1 to 19%. In addition, the pest or weed control at 0.0125 % strength with aphids, Myzus persicae (setting [10]) lay in the range of 1 to 19%; in the assay on aphids, Myzus persicae (setting [8]) it was 1 to 19%; in assay [1] (setting [10]), 1 to 19%; in assay [1] (setting [8]), 1 to 19%. The pest or weed control at 0.025 % strength lay within 1 to 19% with aphids, Myzus persicae (setting [6]); 1 to 19% in the assay with aphids, Myzus persicae (setting [11]); 1 to 19% in assay [1] (setting [6]); 1 to 19% in assay [1] (setting [11]). Further, the pest or weed control at 0.05 % strength lay within 20 to 39% in the assay with aphids, Myzus persicae (setting [7]); 20 to 39% with aphids, Myzus persicae (setting [9]); 1 to 19% in assay [1] (setting [12]); 1 to 19% in assay [1] (setting [13]). Moreover, the pest or weed control at 0.1 % strength is 1 to 19% in the assay with aphids, Myzus persicae (setting [12]); 1 to 19% in the assay on aphids, Myzus persicae (setting [13]); 1 to 19% in assay [1] (setting [12]); 20 to 39% in assay [1] (setting [13]).

With `Cc1cc(C2=NOC(c3cc(Cl)cc(Cl)c3)(C(F)(F)F)C2)sc1SCC(=O)NCC(F)(F)F` (centres unmarked) [Compound 20, 2-[[5-[5-(3,5-dichlorophenyl)-5-(trifluoromethyl)-4H-isoxazol-3-yl]-3-methyl-2-thienyl]sulfanyl]-N-(2,2,2-trifluoroethyl)acetamide], the “control over aphids compared with reference compound 15” value with aphids, Myzus persicae (0.002% concentration) is on record as “more control”. In addition, in the assay on aphids, Myzus persicae (24 h), the pest or weed control at 0.000125 % strength is 1 to 19%, the pest or weed control at 0.00025 % strength fell in the range of 1 to 19%, the pest or weed control at 0.0005 % strength was in the range of 1 to 19% and the pest or weed control at 0.001 % strength lay within 1 to 19%. The pest or weed control at 0.002 % strength in the assay with aphids, Myzus persicae (24 h) was in the range of 1 to 19%. Also, in the assay on aphids, Myzus persicae (48 h), the pest or weed control at 0.000125 % strength lay within 1 to 19%, the pest or weed control at 0.00025 % strength lay within 1 to 19%, the pest or weed control at 0.0005 % strength fell in the range of 1 to 19% and the pest or weed control at 0.001 % strength was in the range of 1 to 19%. Moreover, the pest or weed control at 0.002 % strength with aphids, Myzus persicae (48 h) fell in the range of 20 to 39%. Also, in assay [1] (0.002% concentration), the “control over caterpillars compared with reference compound 15” value is “more control”. Moreover, in assay [1] (24 h), the pest or weed control at 0.000125 % strength was in the range of 1 to 19%, the pest or weed control at 0.00025 % strength was 1 to 19%, the pest or weed control at 0.0005 % strength lay within 1 to 19% and the pest or weed control at 0.001 % strength is 1 to 19%. Further, the pest or weed control at 0.002 % strength in assay [1] (24 h) lay within 20 to 39%. Also, in assay [1] (48 h), the pest or weed control at 0.000125 % strength lay within 1 to 19%, the pest or weed control at 0.00025 % strength lay within 1 to 19%, the pest or weed control at 0.0005 % strength is 1 to 19% and the pest or weed control at 0.001 % strength lay within 1 to 19%. In assay [1] (48 h), the pest or weed control at 0.002 % strength is 20 to 39%.
